In US6583132B1, “Oxidant scavengers” (Duke University, priority 1993, dated 2003):

Experiments:
rat cortical cells = assay: Neurotoxicity (LDH release) in cortical cell culture; assay type: cell-based; conditions: for NMDA-induced LDH release: 1 mM NOS inhibitor
Experimental: (§1) Tissue culture: Mixed neuronal and glial cultures were prepared from embryonic day-18 rat cerebral cortices (Sprague-Dawley, Zivic Miller). Briefly, the cerebral cortices were dissected and enzymatically dissociated by incubation in Ca^++-, Mg^++-free Hank's balanced salt solution (HBSS) supplemented with 10 mM HEPES and 0.25% trypsin for 20 min. at 37° C. The tissue was rinsed and dispersed into single cell suspension by gentle passage through a fire polished Pasteur pipette. The cell suspension was centrifuged and resuspended in Minimum Essential Media (MEM), containing Earle's salts supplemented with 3 g/L glucose, 5% horse serum and 5% fetal bovine serum (growth media). The cells were plated in poly-D-lysine-coated multi-well plates: 12-well plates for aconitase measurement, and 24 well plates for toxicity experiments. Cells were maintained at 37° C. in a humidified incubator with 5% CO2/95% air in growth media. Media was not replaced so as to reduce glial overgrowth and neuronal loss. Mature cells (14-17 days in vitro) were used for all experiments.
(§2) Cell treatment: The growth media was replaced with MEM supplemented with 25 mM glucose (MEM-g). For both neurotoxicity studies and aconitase measurement, cells were incubated in the designated treatment for the indicated length of time at 37° C. Unless otherwise specified, antagonists or SOD-mimetics were added 15 min. prior to agonists. For measurement of neurotoxicity, cells were incubated with treatments for 18 hr at 37° C. in MEM-g. To access the ability of antagonists to inhibit acute NMDA toxicity or rescue cells from an ongoing NMDA insult, an alternate paradigm of NMDA treatment was used in addition to the one describe above. In this paradigm, growth media was replaced with HBSS^+ (Ca^++-, Mg^++-free Hank's Balanced Salt Solution supplemented with 2 mM CaCl2, 1 mM NaHCO3, 10 mM HEPES and 5 μM glycine), cells were treated with vehicle or 100 μM NMDA for 15 min. after which HBSS^+ was replaced with MEM-g and cells were returned to the incubator for 18 additional hrs. Antagonsists or SOD-mimetics were added to the cells 15 min. before NMDA exposure or 15, 30 or 60 min. following final media replacement. For determination of Ca^++-dependence, cells were incubated in HBSS^+ with no added Ca^++. When kainate (KA) was used as an agonist, 100 μM D-APV was routinely included to block secondary NMDA receptor activation. Catalase (100 U/ml) was always included when xanthine plus xanthine oxidase (X+XO) was used as a treatment to rule out the contribution of hydrogen peroxide.
Neurotoxicity studies: Neurotoxicity was determined by the measurement of LDH released in the supernatant media as previously described (Patel et al, Toxicol. Appl. Pharmacol. 115:124 (1991) and Neurotoxicology 14:35 (1992)). LDH was measured by the method of Vassault, Lactate dehydrogenase. In: Methods of Enzymatic Analysis, Bergmeyer HU (ed), Verlag Chemie, Weinheim, pp. 118-126 (1983). Additionally, cell death was confirmed with ethidium-1 homodimer (EthD-1). Briefly, the cells were washed with HBSS, loaded with 20 μM EthD-1 for 30 min,. rinsed and viewed through fluorescence optics. The number of dead cells labeled with EthD-1 were counted in 4-6 randomly selected fields, the numbers averaged to give an estimate of cell death and the experiment was repeated 3 times.

Cold-induced brain edema = assay type: in vivo, mice; conditions: for Edema Index: mean ± standard error; for less edema formation compared to saline treated controls: pretreatment i.p.
Experimental: Injury model: Young (6-7 week) mice (see Example I) were anesthetized with 60 mg/kg pentobarbital (Nembutal, Abbott Laboratories, Chicago, Ill.). An incision was then made in the scalp and a steel rod 20 cm long, 3 mm in diameter, equilibrated in liquid nitrogen with an 8 cm bath of liquid nitrogen 4 cm from the end of the rod, was placed on the skull over the right cerebral hemisphere for 30 seconds. The skin incision was then sutured.
Two hours after the injury the mouse was given an additional dose of pentobarbital. The chest cavity was opened, the lungs were excised, and the mouse was then perfused with 20 ml saline through the left ventricle of the heart. The brain was then removed and the cerebellum was excised. The right (R) and left (L) cerebral hemispheres were separated and immediately weighed (wet weight, W). Each hemisphere was then dried at 70° C. for 2-3 days in a hot air oven until a constant weight was achieved (dry weight, D). An index of edema (I) was then calculated as shown in equation 13.
I=(W/D R−W/DL)/(W/DL)×100 [13]
Chemical treatments: Six groups of experiments were conducted to investigate the importance of extracellular superoxide, iron, and nitric oxide in cold-induced brain edema. In all groups, drugs were dissolved in saline and injected at 0.008 cc/g 15 minutes prior to cold injury. In Group 1, edema formation of EC-SOD transgenic mice was compared with that of nontransgenic littermates. Group 2 compared edema formation between wild-type (C57BL/6×C3H)F1 mice treated with saline and (C57BL/6×C3H)F1 mice treated with 0.33 mg/g deferoxamine (0.51 μmoles/g). Group 3 compared (C57BL/6×C3H)F1 mice treated with saline to (C57BL/6×C3H)F1 mice treated with 0.51 μmoles/g Fe^3÷− saturated deferoxamine. Group 4 consisted of (C57BL/6×C3H)F1 mice treated with saline and (C57BL/6×C3H)F1 mice treated with 0.02 mg/g N-ω-nitro-L-arginine methyl ester. Group 5 consisted of (C57BL/6×C3H)F1 mice treated with saline and (C75BL/6×C3H)F1 mice treated with 0.02 mg/g N-ω-nitro-L-arginine methyl ester plus 0.05 mg/g L-arginine. Group 6 compared edema formation between nontransgenic mice, EC-SOD transgenic mice treated with saline, and EC-SOD transgenic mice treated with 0.02 mg/g N-ω-nitro-L-arginine methyl ester.
Iron saturated deferoxamine was made by dissolving equimolar amounts of deferoxamine and then ferric chloride in saline. Saturation of deferoxamine with ferric iron was determined spectrophotometrically be measuring the absorbance at 425 nm (ε=2500 M^−1 cm^−1 for Fe3+-deferoxamine) (Monzyk and Crumbliss, J. Amer. Chem. Soc. 104:4921 (1982)).

aconitase = assay: Aconitase activity in cortical cell lysates; assay type: cell-based, rat; conditions: for decrease in aconitase activity: PQ^++ 3 hrs, NMDA 1 hr, KA 6 hrs; for NMDA-induced aconitase inactivation: 1 mM NOS inhibitor
Experimental: as §1, §2
Aconitase measurement: For the measurement of aconitase, following treatment with agents, media was removed and cells lysed in ice-cold 50 mM, Tris/HCl, pH 7.4 containing 0.6 mM MnCl2, 1 mM L-cysteine, 1 mM citrate and 0.5% Triton-X 100. The aconitase activity of cell lysates was measured spectrophotometrically by monitoring the formation of cis-aconitate from isocitrate at 240 nm in 50 mM Tris/HCl, pH 7.4, containing 0.6 mM MnCl2 and 20 mM isocitrate at 25° C. (Kreb and Holzach, Biochem. J. 52:527 (1952); Gardner and Fridovich, J. Biol. Chem. 267:8757 (1992)). […] Aconitase activity in cortical cell lysates was inhibited by 0.1 mM potassium ferricyanide or by boiling of sample.

[1] = CNS oxygen toxicity, 6 ATA hyperbaric oxygen exposure; assay type: in vivo, mice; conditions: for Survival: 6 ATA oxygen 25 minutes, DDC 400 mg/kg i.p. or LNNA 20 mg/kg i.p.
Experimental: Oxygen exposures: 7-8 week old mice were exposed to hyperbaric oxygen five at a time in a small-animal chamber (Bethlehem, Pa.). After flushing the chamber with pure oxygen, compression to 50 meters (6 ATA) was performed within 5 minutes. The oxygen concentration in the chamber was monitored continuously with a Servomex oxygen analyzer (model 572, Sybron, Norwood, Mass.) and maintained at ≳99%. The carbon dioxide concentration was analyzed from intermittent samples of chamber gas with an IR detector (IR Industries, Santa Barbara, Calif.) and was not allowed to rise above 0.1%. The chamber temperature was maintained at 25-26° C., but the compression of oxygen in the chamber raised the temperature to 30-32° C. transiently, but an environmental control system restored the normal chamber temperature within 3 minutes. […] The mice were observed continuously for signs of oxygen toxicity from the beginning of the exposure until 4 hours after removal from the chamber. The time to the first generalized convulsion (seizure latency) and the time to death were recorded. These exposure conditions are designed to cause CNS oxygen toxicity without appreciable evidence of pulmonary oxygen toxicity.
Treatment with diethyldithiocarbamate: One hour prior to exposure to 6 ATA oxygen, mice were given either i.p. injections of either 0.008 cc/g saline or 400 mg/kg diethyldithiocarbamate dissolves in normal saline (0.008 cc/g). The mice were then exposed to 6 ATA oxygen for 25 minutes as described above.
Treatment with β-mercaptoethanol: One hour prior to exposure to 6 ATA oxygen, mice were given either i.p. injections of 0.008 cc/g saline or 180 mg/kg β-mercaptoethanol (0.008 cc/g). This dose of β-mercaptoethanol was selected because it contains an equal number of reducing thiols as the dose of diethyldithiocarbamate. The mice were then exposed to 6 ATA oxygen for 30 minutes as described above.
Treatment with N-ω-nitro-L-arginine, an inhibitor of nitric oxide synthase: Ten minutes prior to beginning compression, 0.008 cc/g saline or 20 mg/kg (0.008 cc/g) N-ω-nitro-L-arginine dissolved in sterile water was given i.p to the transgenic and nontransgenic mice. Mice were then exposed at 6 ATA oxygen for 25 or 75 minutes as described above.

J774 macrophages = assay: Mitochondrial respiration (MTT) in J774 macrophages; assay type: cell-based; conditions: IFN alone, 10 U/ml
Experimental: Cell culture: J774 macrophages were cultured in DMEM medium, supplemented with L-glutamine (3.5 mmol/L) and 10% fetal calf serum. Cells were cultured in 96-well plates (200 μl medium/well) until confluence. To induce the inducible isoform of nitric oxide synthase (iNOS), fresh culture medium containing E. coli LPS (011:B4, 10 μg/ml) alone or in combination with murine γ-interferon (γ-IFN, 10 U/ml) was added in the presence or absence of the NOS inhibitor, the SOD mimetic of the combination of the two compounds for 24 h. Moreover, cells were exposed to the NO donor compounds S-nitroso-N-acetyl-DL-penicillamine (SNAP) (3 mM) and diethylamine:NO NONOate (DNO) (3 mM) for 24 h or to authentic peroxynitrite (1 mM) for 1 h). Nitride/nitrate concentration in the medium and mitochondrial respiration were then measured as described below.
Measurement of mitochondrial respiration: Cell respiration was assessed by the mitochondrial-dependent reduction of 3-(4,5-dimethylthiazol-2-yl)-2,5-diphenyltetrazolium bromide (MTT) to formazan. Cells in 96-well plates were incubated at 37° C. with MTT (0.2 mg/ml) for 1 hour. Culture medium was removed by aspiration and the cells were solubilized in DMSO (100 μl). The extent of reduction of MTT to formazan within cells was quantitated by the measurement of OD550. All measurements were corrected for the interference of MnTBAP at this wavelength.

## N[C@H](CCCP(=O)(O)O)C(=O)O [D-APV, reference compound]
Rat cortical cells; condition "pre", 100 μM D-APV, 100 μM NMDA 15 min.
  LDH release: complete blockade

## CC(=O)N(O)CCCCCNC(=O)CCC(=O)N(O)CCCCCNC(=O)CCC(=O)N(O)CCCCCN [Deferoxamine, deferoxamine]
Cold-induced brain edema; wild-type mice, 0.51 μmoles/g, 15 minutes prior to cold injury
  Edema Index: 3.41 ± 0.49
Cold-induced brain edema; wild-type mice
  less edema formation compared to saline treated controls: 43%

## C=C(C)[C@H]1CN[C@H](C(=O)O)[C@H]1CC(=O)O [KA, kainate]
aconitase
  decrease in aconitase activity: 42%

## N=C(N)NCCC[C@H](N)C(=O)O [L-arginine]
[1]; 20 mg/kg LNNA plus 50 mg/kg L-arginine, 6 ATA oxygen
  effect of excess L-arginine on protection by N-ω-nitro-L-arginine: could be reversed

## COC(=O)[C@@H](N)CCCNC(=N)N[N+](=O)[O-] [LNAME, N-ω-nitro-L-arginine methyl ester]
Rat cortical cells
  NMDA-induced LDH release: unchanged
aconitase
  NMDA-induced aconitase inactivation: unchanged
Cold-induced brain edema; EC-SOD transgenic mice, 20 mg/kg 15 minutes prior to cold-induced injury
  Edema Index: 4.30 ± 0.96
Cold-induced brain edema; wild-type mice, 0.02 mg/g LNAME, with or without 0.05 mg/g L-arginine
  Edema Index: 3.65 ± 0.51
Cold-induced brain edema; wild-type mice
  less edema formation compared to saline treated controls: 37%

## C[C@]12N[C@H](Cc3ccccc31)c1ccccc12 [MK801, reference compound]
Rat cortical cells; added 15 min. after 15 min. 100 μM NMDA, 200 μM MnTBAP, 10 μM MK801
  reduction of LDH release / protective effect: 17%

## NC(=NCCC[C@H](N)C(=O)O)N[N+](=O)[O-] [N-ω-nitro-L-arginine]
Rat cortical cells
  NMDA-induced LDH release: unchanged
aconitase
  NMDA-induced aconitase inactivation: unchanged
[1]; 20 mg/kg i.p., 6 ATA oxygen 75 minutes
  difference in sensitivity between transgenic and nontransgenic mice: abolished the difference in sensitivity
[1]; nontransgenic mice
  Survival: 100%
[1]; transgenic and nontransgenic mice, 20 mg/kg i.p., 6 ATA oxygen
  seizure latency: significantly delayed
[1]; transgenic mice
  Survival: 100%
[1]; wild-type mice, 20 mg/kg i.p., 6 ATA oxygen
  seizure latency: 13.50 ± 5.6 min
[1]; wild-type mice, 20 mg/kg i.p., 90 minutes of 6 ATA oxygen
  mortality: 50%
[1]; wild-type mice, 20 mg/kg i.p., 2 hours of 6 ATA oxygen
  mortality: 100%

## CN[C@H](CC(=O)O)C(=O)O [NMDA, N-methyl-D-aspartate]
aconitase
  decrease in aconitase activity: 40%

## C[n+]1ccc(-c2cc[n+](C)cc2)cc1 [PQ^++, methylviologen (paraquat)]
aconitase
  decrease in aconitase activity: 70%

## OCCS [β-mercaptoethanol]
[1]; 180 mg/kg i.p., 6 ATA oxygen 30 minutes
  protection against CNS oxygen toxicity: did not protect against CNS oxygen toxicity

B1: IFN: murine γ-interferon (protein, UniProt P01580 23-155, looked up)
Interferon gamma: HGTVIESLESLNNYFNSSGIDVEEKSLFLDIWRNWQKDGDMKILQSQIISFYLRLFEVLKDNQAISNNISVIESHLITTFFSNSKAKKDAFMSIAKFEVNNPQVQRQAFNELIRVVHQLLPESSLRKRKRSRC
J774 macrophages
  suppression of respiration: < 15%
